Where two headings read alike, the source gives them in different places.
What was measured:
[1] = tested on: healthy male adult volunteers; assay: Phase I study, single oral administration: sweating; assay type: in vivo, human; details: for Sweating (number of subjects with the symptom): healthy male adult volunteers, 6 subjects
Method: (§1) The compound A was orally administered once to healthy male adult volunteers, and saliva secretion action and pharmacokinetics were evaluated.
(§2) Drug administration to the volunteers was carried out by a blind method.
(§3) In order to observe the volunteers carefully, saliva quantity, sweating and pharmacokinetics (concentrations of unchanged compound A in plasma and urine) were periodically measured.

[2] = Calculation of plasma concentration under stationary state (Css) and PT ratio from phase I data; parameters: species or system human; details: for concentration in plasma under stationary state (Css): calculated from AUC and T1/2 at 20 mg; for PT ratio (Cmax/Cmin): calculated
Text: As described in the above, in order to increase secretion of salivary and tear fluid and to obtain effect of salivary gland and lacrimal gland cell growth, more sufficiently than usual, it is desirable to control drug release per unit hour of the compound A from a sustained release pharmaceutical preparation, and essentially, it is ideal to keep its effective concentration in human plasma for a predetermined period of time. The effective concentration of compound A in plasma under stationary state can be calculated using the AUC and disappearing half life obtained in the human clinical test, the aforementioned drug release per unit hour, distribution volume, disappearing rate constant and the like pharmacokinetic parameters.
An example of the method for calculating its concentration in plasma under stationary state (Css) is shown in the following.
They were 86.9, 172, 1380 and 2758 ng/ml. Though there is a possibility that it varies depending on the influences of specific difference, individual difference and the like various factors, when an example is cited, effective concentration of the compound A in plasma is 35 ng/ml in a lower case, based on the aforementioned calculation result and from the aforementioned valued calculated from Tables 7 and 8. This is preferably 50 ng/ml, more preferably 87 ng/ml, and further more preferably 170 ng/ml.
In addition, it is desirable to control a PT ratio (Cmax/Cmin) which is the ratio of maximum concentration of the compound A in plasma (Cmax) to its minimum concentration in plasma (Cmin). It is possible to calculate the PT ratio from Tmax and T1/2, and the calculation is carried out in the following manner.
This value means that the hour of T1/2 passed 5.5 times after Tmax, and (½)^5.5=1/45. Thus, the PT ratio becomes 45.
Also, when supposed as twice a day administration, (12−2)/4=2.5. In the same manner as in the above, (½)^2.5=1/5.7. Thus, the PT ratio is 5.7. In addition, when the same calculation is carried out based on the minimum value 3.4 h of T1/2 (showing the effect without perspiration),

[3] = tested on: healthy male adult volunteers; assay: Phase I study, single oral administration: saliva secretion; assay type: in vivo, human; details: for Increase of saliva secretion (number of subjects with the symptom): healthy male adult volunteers, 6 subjects
Method: as §1, §2, §3

[4] = Phase I study, single oral administration: pharmacokinetics in plasma; assay type: in vivo, human; details: for Tmax / AUC / half-life / Cmax: male
Method: as §1, §2, §3

[5] = phase I study, oral administration
[6] = human plasma, single oral 10 mg
[7] = human plasma, single oral 20 mg
[8] = human plasma, single oral 40 mg
[9] = human plasma, single oral 60 mg

C=C1CC2(CCN(C)CC2)O[C@H]1C [compound A, (−)-(S)-2,8-dimethyl-3-methylene-1-oxa-8-azaspiro[4.5]decane]
Sweating (number of subjects with the symptom) ([1]; single oral 5 mg): 0
Sweating (number of subjects with the symptom) ([1]; single oral 10 mg): 1
Sweating (number of subjects with the symptom) ([1]; single oral 20 mg): 0
Sweating (number of subjects with the symptom) ([1]; single oral 40 mg): 0
Sweating (number of subjects with the symptom) ([1]; single oral 60 mg): 5
dose at which a side effect was found ([1]; human clinical test): 60 mg/individual
dose at which a side effect was not found ([1]; human clinical test): 40 mg/individual
maximum dose (single administration) by which sweating was not observed but the beneficial effect was observed [1, 5]: 40 mg
concentration in plasma under stationary state (Css) ([2]; release rate R=4.2 mg/h): 86.9 ng/mL
concentration in plasma under stationary state (Css) ([2]; release rate R=8.3 mg/h): 172 ng/mL
concentration in plasma under stationary state (Css) ([2]; release rate R=66.7 mg/h): 1380 ng/mL
concentration in plasma under stationary state (Css) ([2]; release rate R=133.3 mg/h): 2758 ng/mL
PT ratio (Cmax/Cmin) ([2]; once a day administration, T1/2 3.4 h): 90.5
PT ratio (Cmax/Cmin) ([2]; once a day administration, Tmax 2, T1/2 4): 45
PT ratio (Cmax/Cmin) ([2]; twice a day administration, T1/2 3.4 h): 7.5
PT ratio (Cmax/Cmin) ([2]; twice a day administration, Tmax 2, T1/2 4): 5.7
Increase of saliva secretion (number of subjects with the symptom) ([3]; single oral 5 mg): 0
Increase of saliva secretion (number of subjects with the symptom) ([3]; single oral 10 mg): 2
Increase of saliva secretion (number of subjects with the symptom) ([3]; single oral 20 mg): 2
Increase of saliva secretion (number of subjects with the symptom) ([3]; single oral 60 mg): 5
minimum dose by which increase of the salivary fluid secretion was observed [3, 5]: 10 mg
AUC0→∞ ([4]; human plasma, single oral 5 mg): 117.6 ± 41.5 ng/h/mL
AUC0→∞ [4, 6]: 180.5 ± 77.6 ng/h/mL
AUC0→∞ [4, 7]: 410.1 ± 106.8 ng/h/mL
AUC0→∞ [4, 8]: 1,010.1 ± 323.2 ng/hr/ml
AUC0→∞ [4, 9]: 1,482.3 ± 371.1 ng/hr/ml
Tmax ([4]; plasma, oral, human test result which used general tablets containing the compound A): ~2 h
AUC ([4]; plasma, oral, human, 20 mg administration): 410 ng·h/mL
half-life ([4]; plasma, oral, human, 20 mg administration, read-out: T1/2 (converted)): 3.38 h
AUC ([4]; plasma, human, 40 mg oral administration): 1010 ng·h/mL
Cmax ([4]; plasma, human, oral 10 mg): 35.3 ± 10.5 ng/mL
Cmax ([4]; plasma, human, oral 40 mg): 151 ± 24.1 ng/mL
Cmax ([4]; human plasma, single oral 5 mg): 19.8 ± 5.2 ng/mL
Tmax ([4]; human plasma, single oral 5 mg): 1.5 ± 0.55 h
half-life ([4]; human plasma, single oral 5 mg, read-out: T½ (converted)): 3.89 ± 0.81 h
Tmax [4, 6]: 1.17 ± 0.41 h
half-life ([4]; human plasma, single oral 10 mg, read-out: T½ (converted)): 3.42 ± 0.67 h
Cmax [4, 7]: 68.1 ± 13 ng/mL
Tmax [4, 7]: 2 ± 0.63 h
half-life ([4]; human plasma, single oral 20 mg, read-out: T½ (converted)): 3.88 ± 0.67 h
Tmax [4, 8]: 1.67 ± 0.82 h
half-life ([4]; human plasma, single oral 40 mg, read-out: T½ (converted)): 3.78 ± 0.59 h
Cmax [4, 9]: 266 ± 25.2 ng/mL
Tmax [4, 9]: 1.6 ± 0.55 h
half-life ([4]; human plasma, single oral 60 mg, read-out: T½ (converted)): 3.2 ± 0.79 h

— patent publication US20080131511A1, “Pharmaceutical Composition for Treatment of Tear and Salivary Fluid Drying” (Astellas Pharma, Inc., priority 2004, published 2008)
